This note sets out measurements from paper PMC7352216 (Cancers, 2020).

pIC50: −log10 of the molar value.

One data set deals with SNU5 tumors. In words: In vivo efficacy test in xenograft model. Conditions: five consecutive days a week for three weeks. Further details: species or system BALB/c-nude mice. The protocol: Female BALB/c-nude mice (5–6 weeks old) were housed under specific pathogen-free conditions in individually ventilated cages with access to sterilized food and water ad libitum. The animals were maintained on a 12 h light/dark cycle in a temperature- and humidity-controlled animal research facility. All experimental procedures and protocols used for the animal study were approved by the Seoul National University Institutional Animal Care and Use Committee (No. SNU-160307, SNU-161221-1). All efforts were made to minimize the suffering of animals. SNU5, EBC-1, and SNU638 cancer cell lines were harvested and resuspended in 50% Cultrex Basement Membrane Extract. The mice were injected subcutaneously into the flank with viable SNU5, EBC-1 or SNU638 cells at 2 × 10^6 cells/mouse. When the tumors reached an average volume of 150–300 mm^3, the mice were randomly divided into vehicle control and treatment groups (six mice per group). […] The mice were observed daily and their weights were recorded during the treatment period. The sizes of tumors were measured twice weekly with digital calipers, and the volumes of tumors were calculated with the following formula: volume (mm3) = length (mm) × width (mm)^2 × 0.5.

In data set [1] the test system is HFE145 (Negative cell line). In words: WST cell viability assay.
Data set [2] deals with MET-addicted cancer cells. Briefly: WST cell viability assay.

Usually TGI stands for the reduction of tumour growth relative to the control group. A higher TGI goes with a stronger effect on the tumour. What is called pIC50 is the negative decadic logarithm of the IC50, by convention in mol/L. Regarding `CN1CCN(Cc2ccc(-c3cnc(N4CCOC(Cn5nnc6ncc(-c7cnn(C)c7)nc65)C4)nc3)cc2)CC1` (centres unmarked) [ABN401], the TGI in the data set with SNU5 tumors (3 mg/kg oral) was found to be 24.47%; in the data set on SNU5 tumors (30 mg/kg oral) it was 89.49%. The cell killing entry in data set [1] (10 μM ABN401) was “No cell killing”. Besides, the pIC50 in data set [1] (72 h, read-out: ABN401 IC50) is below 5.00. Also, the cytotoxicity in data set [2] is given as above 90%.
